From US6737383B1, “Herbicidal oxadiazolidines” (priority 1999, dated 2004)

Experiments:
certain weeds = assay: Test F overall statement on synergism with rimsulfuron (Colby's equation); format: in vivo; details: combinations with rimsulfuron, preemergence
Procedure: Abutilon theophrasti (ABUTH), Chenopodium album (CHEAL), Amaranthus rudis (AMATA), Setaria […]), Panicum dichotomiflorum (PANDI), and Digitaria sanguinalis (DIGSA) were grown from seed in pots of an artificial potting mixture in a greenhouse. Compounds of the present invention were applied at 70 and 105 g ai/ha preemergence. Rimsulfuron was applied at 8.8 and 17.5 g ai/ha. Mixtures of the compounds of the present invention and rimsulfuron were also applied. Following application, the plants were maintained by watering as needed. A fertilizer solution of Peter's 20-20-20 (10 pounds/5 gallons of water) plus Sprint 330, a Iron Chelate micronutrient, (113.5 grams/5 gallons of water) was injected into the water with an Anderson fertilizer injection system to provide approximately 219 ppm of nitrogen with each watering. Artificial lighting was used to supplement natural light to produce a 14 hour photoperiod and: an additional one hour light period was used between 1:00 am to 2:00 am for a night interruption. Greenhouse temperatures were targeted for 27° C. in the day and 21° C. at night. At 21 days after treatment, all plants were evaluated for injury as compared to control plants that were sprayed only with non-phytotoxic solvent. […] Colby's equation was used to calculate the expected additive herbicidal effect of the mixtures of Compound 21 and the mixture partners listed above. […]

maize hybrid P33G26 = assay: Test G maize injury with safener-treated seed; details: for Mean plant response rating, maize: 28 days after application
Outline: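 Maize hybrid P33G26 seed, treated with dichlormid, fenchlorazole-ethyl or naphthalic anhydride or left untreated, was sown in soil pots, then sprayed pre-emergence with several compound rates at 310 L/ha. Plants grew in a greenhouse (14 h day, about 27/24 °C day/night), with 4–5 replicates. Injury was scored visually against untreated controls 28 days after application.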

large crabgrass = assay: Test D large crabgrass; format: in vivo, Digitaria sanguinalis; details: Postemergence, 0 to 100 scale
purple nutsedge = assay: Test D purple nutsedge; format: in vivo, Cyperus rotundus; details: Postemergence, 0 to 100 scale
sandbur = assay: Test D sandbur; format: in vivo, Cenchrus echinatus; details: Postemergence, 0 to 100 scale
sourgrass = assay: Test D sourgrass; format: in vivo, Trichachne insularis; details: Postemergence, 0 to 100 scale
tall mallow = assay: Test D tall mallow; format: in vivo, Malva sylvestris; details: Postemergence, 0 to 100 scale
Green foxtail [1] = assay: Test D green foxtail; format: in vivo; details: Rate 250 g/ha; Postemergence; 0 to 100 scale
Green foxtail [2] = assay: Test D green foxtail; format: in vivo; details: Rate 250 g/ha; Postemergence; 0 to 100 scale; remark: listed apart in the source
Green foxtail [3] = assay: Test D green foxtail; format: in vivo; details: Postemergence, 0 to 100 scale, 0 no injury, 100 complete control
[4] = Rate 16 g/ha, 0 no injury, 100 complete control
[5] = Rate 32 g/ha, 0 no injury, 100 complete control
[6] = Rate 64 g/ha, 0 no injury, 100 complete control
[7] = Rate 125 g/ha, 0 no injury, 100 complete control

CC(C)N(C(=O)n1oc(=O)n(C(C)C)c1=O)c1ccc(F)cc1 [Compound 131]
Weed control of combination with rimsulfuron compared with expectation from Colby's equation (certain weeds): better control of certain weeds than expected | Mean plant response rating, maize (maize hybrid P33G26; Safener Dichlormid (seed treatment), Rate 70 g ai/ha): 3 percent control | Mean plant response rating, maize (maize hybrid P33G26; Safener Dichlormid (seed treatment), Rate 140 g ai/ha): 3 percent control | Mean plant response rating, maize (maize hybrid P33G26; Safener Dichlormid (seed treatment), Rate 280 g ai/ha): 3 percent control | Mean plant response rating, maize (maize hybrid P33G26; Safener Dichlormid (seed treatment), Rate 560 g ai/ha): 40 percent control | Mean plant response rating, maize (maize hybrid P33G26; Safener Fenchlorazole-ethyl (seed treatment), Rate 70 g ai/ha): 85 percent control | Mean plant response rating, maize (maize hybrid P33G26; Safener Fenchlorazole-ethyl (seed treatment), Rate 140 g ai/ha): 91 percent control | Mean plant response rating, maize (maize hybrid P33G26; Safener Fenchlorazole-ethyl (seed treatment), Rate 280 g ai/ha): 92 percent control | Mean plant response rating, maize (maize hybrid P33G26; Safener Fenchlorazole-ethyl (seed treatment), Rate 560 g ai/ha): 96 percent control | Mean plant response rating, maize (maize hybrid P33G26; Safener None, Rate 70 g ai/ha): 80 percent control | Mean plant response rating, maize (maize hybrid P33G26; Safener None, Rate 140 g ai/ha): 88 percent control | Mean plant response rating, maize (maize hybrid P33G26; Safener None, Rate 280 g ai/ha): 91 percent control | Mean plant response rating, maize (maize hybrid P33G26; Safener None, Rate 560 g ai/ha): 95 percent control | Mean plant response rating, maize (maize hybrid P33G26; Safener naphthalic anhydride (seed treatment), Rate 140 g ai/ha): 0 percent control | Injury to maize (maize hybrid P33G26; absence of any safener, rates ranging from 70 to 560 g/ha): severely injurious to maize | Plant response rating Large crabgrass (large crabgrass; [4]): 90 | Plant response rating Large crabgrass (large crabgrass; [5]): 100 | Plant response rating Large crabgrass (large crabgrass; [6]): 100 | Plant response rating Large crabgrass (large crabgrass; [7]): 100 | Plant response rating Large crabgrass (large crabgrass; Rate 250 g/ha): 100 | Plant response rating, Purple nutsedge (purple nutsedge; [4]): 0 | Plant response rating, Purple nutsedge (purple nutsedge; [5]): 0 | Purple nutsedge plant response rating (purple nutsedge; [6]): 0 | Purple nutsedge plant response rating (purple nutsedge; [7]): 30 | Plant response rating, Purple nutsedge (purple nutsedge; Rate 250 g/ha): 100 | Plant response rating, Sandbur (sandbur; [4]): 0 | Plant response rating, Sandbur (sandbur; [5]): 0 | Sandbur plant response rating (sandbur; [6]): 100 | Sandbur plant response rating (sandbur; [7]): 100 | Plant response rating, Sandbur (sandbur; Rate 250 g/ha): 100 | Sourgrass plant response rating (sourgrass; [7]): 50 | Plant response rating, Sourgrass (sourgrass; Rate 250 g/ha): —80 | Plant response rating, Tall Mallow (tall mallow; [4]): 0 | Plant response rating, Tall Mallow (tall mallow; [5]): 30 | Tall Mallow plant response rating (tall mallow; [6]): 40 | Tall Mallow plant response rating (tall mallow; [7]): 90 | Plant response rating, Tall Mallow (tall mallow; Rate 250 g/ha): 100 | Plant response rating, Green foxtail (Green foxtail [1]): 100 | Plant response rating, Green foxtail (Green foxtail [2]): 100 | Plant response rating, Green foxtail (Green foxtail [3]; Rate 16 g/ha): 0 | Plant response rating, Green foxtail (Green foxtail [3]; Rate 32 g/ha): 60
